Source: patent US20090286827A1, “NOVEL BI-ARYL AMINES” (priority 2006, published 2009)

target: T1, mGluR5 (Homo sapiens, UniProt P41594); assay: inhibition of the glutamate induced elevation of intracellular Ca2+-concentration; type: cell-based; conditions: inhibition of glutamate induced elevation of intracellular Ca2+ at a concentration of 10 μM; read-out: mGluR5 Activity inh. at 10 μM [%]
T1 construct: expressed in transfected cells
Excerpt: This can be determined in vitro for example at recombinant human metabotropic glutamate receptors, especially PLC-coupled subtypes thereof such as mGluR5, using different procedures like, for example, measurement of the inhibition of the agonist induced elevation of intracellular Ca^2+ concentration in accordance with L. P. Daggett et al., Neuropharm. Vol. 34, pages 871-886 (1995), P. J. Flor et al., J. Neurochem. Vol. 67, pages 58-63 (1996) or by determination to what extent the agonist induced elevation of the inositol phosphate turnover is inhibited as described by T. Knoepfel et al., Eur. J. Pharmacol. Vol. 288, pages 389-392 (1995), L. P. Daggett et al., Neuropharm. Vol. 34, pages 871-886 (1995) and references cited therein. Isolation and expression of human mGluR subtypes are described in U.S. Pat. No. 5,521,297. Selected agents of the invention show IC50 values for the inhibition of the agonist (e.g. glutamate or quisqualate) induced elevation of intracellular Ca2+ concentration or the agonist (e.g. glutamate or quisqualate) induced inositol phosphate turnover, measured in recombinant cells expressing hmGluR5a of about 1 nM to about 50 μM.
Activity of compounds of the present invention was examined by measurement of the inhibition of the glutamate induced elevation of intracellular Ca^2+-concentration following similar methods than those described in L. P. Daggett et al., Neuropharm. Vol. 34, pages 871-886 (1995), P. J. Flor et al., J. Neurochem. Vol. 67, pages 58-63 (1996).
The table below represents percentages of inhibition of the glutamate induced elevation of intracellular Ca^2+-concentration at a concentration of 10 μM.

T1 sequence (P41594 21-1180 isoform P41594-2 limits assumed): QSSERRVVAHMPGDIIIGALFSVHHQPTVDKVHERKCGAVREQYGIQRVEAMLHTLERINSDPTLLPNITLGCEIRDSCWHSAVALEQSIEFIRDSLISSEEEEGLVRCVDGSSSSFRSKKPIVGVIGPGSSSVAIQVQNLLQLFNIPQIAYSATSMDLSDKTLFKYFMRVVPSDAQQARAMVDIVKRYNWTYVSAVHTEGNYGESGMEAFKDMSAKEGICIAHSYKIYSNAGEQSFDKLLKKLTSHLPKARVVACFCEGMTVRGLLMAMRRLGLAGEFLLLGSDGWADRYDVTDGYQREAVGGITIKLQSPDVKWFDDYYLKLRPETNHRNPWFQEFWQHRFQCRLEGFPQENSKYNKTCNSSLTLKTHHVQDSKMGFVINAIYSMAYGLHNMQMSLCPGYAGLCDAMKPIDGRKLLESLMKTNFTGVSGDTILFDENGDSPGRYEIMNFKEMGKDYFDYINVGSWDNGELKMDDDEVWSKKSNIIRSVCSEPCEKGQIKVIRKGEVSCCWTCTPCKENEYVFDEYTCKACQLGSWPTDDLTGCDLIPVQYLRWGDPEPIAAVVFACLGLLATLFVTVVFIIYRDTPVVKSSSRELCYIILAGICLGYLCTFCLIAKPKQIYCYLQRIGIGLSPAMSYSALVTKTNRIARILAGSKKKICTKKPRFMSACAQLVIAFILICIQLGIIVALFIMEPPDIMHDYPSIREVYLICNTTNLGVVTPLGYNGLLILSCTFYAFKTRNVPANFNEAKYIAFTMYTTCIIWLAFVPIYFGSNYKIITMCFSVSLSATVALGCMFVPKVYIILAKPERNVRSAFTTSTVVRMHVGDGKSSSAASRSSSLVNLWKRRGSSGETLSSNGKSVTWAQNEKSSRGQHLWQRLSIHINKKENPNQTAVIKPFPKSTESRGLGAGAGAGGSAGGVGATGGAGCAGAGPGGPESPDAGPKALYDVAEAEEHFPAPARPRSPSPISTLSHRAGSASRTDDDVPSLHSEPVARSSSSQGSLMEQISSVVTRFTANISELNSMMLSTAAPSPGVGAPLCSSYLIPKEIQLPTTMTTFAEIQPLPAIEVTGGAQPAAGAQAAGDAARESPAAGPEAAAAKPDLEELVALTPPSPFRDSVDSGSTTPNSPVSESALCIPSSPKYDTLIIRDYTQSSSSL

| inhibition at 10 µM [%] | SMILES |
| --- | --- |
| 35 | Cc1cn(-c2cnc(Nc3ccc(Cl)cc3)c(Cl)c2)cn1 [Compound 49, [3-Chloro-5-(4-methyl-imidazol-1-yl)-pyridin-2-yl]-(4-chloro-phenyl)-amine] |
| 97 | CCCn1ccnc1-c1cnc(Nc2ccc(Cl)cc2)c(Cl)c1 [Compound 19, (4-Chloro-phenyl)-[3-chloro-5-(1-propyl-1H-imidazol-2-yl)-pyridin-2-yl]-amine] |
| 63 | Clc1ccc(Nc2ccc(-c3nccn3-c3ccccc3)cn2)cc1 [Compound 9, (4-Chloro-phenyl)-[5-(1-phenyl-1H-imidazol-2-yl)-pyridin-2-yl]-amine] |
| 94 | CCn1ccnc1-c1ccc(Nc2ccc(Cl)cc2)nc1 [Compound 1, (4-Chloro-phenyl)-[5-(1-ethyl-1H-imidazol-2-yl)-pyridin-2-yl]-amine] |
| 56 | CC(C)n1cnc(-c2ccc(Nc3ccc(Cl)cc3)nc2)c1 [Compound 11, (4-Chloro-phenyl)-[5-(1-isopropyl-1H-imidazol-4-yl)-pyridin-2-yl]-amine] |
| 100 | CCCn1cc(C(C)(C)C)nc1-c1cnc(Nc2ccc(Cl)cc2)c(Cl)c1 [Compound 40, [5-(4-tert-Butyl-1-propyl-1H-imidazol-2-yl)-3-chloro-pyridin-2-yl]-(4-chloro-phenyl)-amine] |
| 48 | Cc1cnc(-c2cnc(Nc3ccc(Cl)cc3)c(Cl)c2)n1C [Compound 31, [3-Chloro-5-(1,5-dimethyl-1H-imidazol-2-yl)-pyridin-2-yl]-(4-chloro-phenyl)-amine] |
| 93 | CC(C)n1ccnc1-c1ccc(Nc2ccc(Cl)cc2)nc1 [Compound 4, (4-Chloro-phenyl)-[5-(1-isopropyl-1H-imidazol-2-yl)-pyridin-2-yl]-amine] |
| 100 | CCCn1cc(CC)nc1-c1cnc(Nc2ccc(Cl)cc2)c(Cl)c1 [Compound 34, [3-Chloro-5-(4-ethyl-1-propyl-1H-imidazol-2-yl)-pyridin-2-yl]-(4-chloro-phenyl)-amine] |
| 98 | Clc1ccc(Nc2ncc(-c3nnc4n3CCCCCC4)cc2Cl)cc1 [Compound 26, [3-Chloro-5-(5,6,7,8,9,10-hexahydro-[1,2,4]triazolo[4,3-a]azocin-3-yl)-pyridin-2-yl]-(4-chloro-phenyl)-amine] |
| 73 | CC(C)n1cncc1-c1ccc(Nc2ccc(Cl)cc2)nc1 [Compound 10, (4-Chloro-phenyl)-[5-(3-isopropyl-3H-imidazol-4-yl)-pyridin-2-yl]-amine] |
| 37 | CCc1c(C)n(CC)c(-c2cnc(Nc3ccc(Cl)cc3)c(Cl)c2)[n+]1CC [Compound 43, 2-[5-Chloro-6-(4-chloro-phenylamino)-pyridin-3-yl]-1,3,5-triethyl-4-methyl-3H-imidazol-1-ium iodide] |
